Key:
RS4;11 cells = experiment: Inhibition of proliferation of RS4;11 human acute lymphocytic leukemia cells (CCK-8); assay type: cell-based; conditions: 72 h compound exposure, CCK-8, 5% serum
Protocol: RS4;11 cells (from ATCC) in logarithmic growth phase and good cell condition were added to a centrifuge tube and centrifuged at 1500 rpm for 3 min in a low speed centrifuge. The supernatant was discarded, and 5 mL of complete medium (RPMI basic medium+10% FBS) was added using a pipette for cell resuspension. The cells were counted using a cell counter, diluted with complete medium to a cell density of 2×10^5 cells/mL, and an equivalent amount of RPMI basic medium was added to adjust the serum concentration to 5% and the cell density to 1×10^5 cells/mL for plate seeding. The cells were seeded on a 96-well plate at 100 μL/well using a pipettor, and incubated in an incubator at 37° C., 5% CO2 with saturated humidity. After 24 h of incubation, compounds were loaded using a nanoliter pipettor, 2 duplicate wells were set for each concentration, and cells without compound were used as negative controls. […] Inhibition rate (%)=(mean value of negative control group−mean value of experimental group)/(mean value of negative control group−mean value of blank group)×100%. A dose-response curve was fitted by four-parameter analysis, with the logarithm of compound concentration serving as abscissa and inhibition rate serving as ordinate, so that IC50 was calculated (Table 1).

BCL-2/BAK = target: T1, BCL-2/BAK (Homo sapiens, UniProt P10415); experiment: Inhibitory activity for BCL-2/BAK binding (Cisbio BCL-2/BAK (BH3) binding assay kit)
T1 construct: purchased Cisbio 63ADK000CB01PEG
T1 sequence (P10415 whole entry): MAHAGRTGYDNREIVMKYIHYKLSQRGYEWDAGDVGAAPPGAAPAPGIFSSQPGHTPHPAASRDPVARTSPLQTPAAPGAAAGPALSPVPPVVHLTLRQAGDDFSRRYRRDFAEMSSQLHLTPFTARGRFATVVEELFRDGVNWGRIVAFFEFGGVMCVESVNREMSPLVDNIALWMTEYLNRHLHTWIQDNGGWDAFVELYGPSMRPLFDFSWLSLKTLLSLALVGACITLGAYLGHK
Protocol: 500 nM Tag1-BCL-2 protein stock solution and 20 μM Tag2-BAK protein stock solution were diluted to 5 nM and 120 nM respectively with dilution buffer in kit (name: BCL-2/BAK (BH3) BINDING ASSAY KITS, cat. No.: 63ADK000CB01PEG, from Cisbio). 5 μL of Tag1-BCL-2 protein diluent was added to each well, then test compounds dissolved with DMSO were added to the wells with a nanoliter pipettor, allowing the final compound concentrations to be 200 nM to 0.0488 nM (4-fold gradient for 7 concentrations in total). Blank control wells (without enzyme) and negative control wells (with enzyme, plus vehicle DMSO) were set, and 2 replicate wells were set. Finally, 5 μL of Tag2-BAK protein diluent was added to each well, and the mixture was mixed well by centrifugation and incubated at 25° C. for 15 min. 100× anti-Tag1-Eu^3+ and 100× anti-Tag2-XL665 were both diluted to 1× working concentration with the detection buffer in the kit. Anti-Tag1-Eu^3+ and anti-Tag2-XL665 were mixed well in a 1:1 ratio, and the mixture was added to wells at 5 μL/well, and incubated at 25° C. for 2 h or more. The plate was read using a PE Envision multi-functional microplate reader ([…], emission: 665 nm) and IC50 (shown in Table 2) was calculated by four-parameter fitting.

Structure (SMILES) | IC50 (RS4;11 cells) [nM] | IC50 (BCL-2/BAK) [nM]
Cc1cc(C(F)(F)F)ccc1C1=C(CN2CCN(c3ccc(C(=O)NS(=O)(=O)c4ccc(NC[C@@H]5COCCO5)c([N+](=O)[O-])c4)c(Oc4cnc5[nH]ccc5c4)c3)CC2)CCC(C)(C)C1 [Compound 2-1] | 4.2 | 
Cc1cc(C(F)(F)F)ccc1C1=C(CN2CCN(c3ccc(C(=O)NS(=O)(=O)c4ccc(NC[C@@H]5CCCO5)c([N+](=O)[O-])c4)c(Oc4cnc5[nH]ccc5c4)c3)CC2)CCC(C)(C)C1 [Compound 11-1, (S)-4-(4-{[2-(2-methyl-4-trifluoromethylphenyl)-4,4-dimethylcyclohex-1-enyl]methyl}-piperazin-1-yl)-N-({3-nitro-4-[((tetrahydrofuran-2-yl)methyl)amino]phenyl}sulfonyl)-2-(1H-pyrrolo[2,3-b]pyridin-5-yloxy)-benzamide] |  | 1.79
CC(=O)N1CCO[C@@H](CNc2ccc(S(=O)(=O)NC(=O)c3ccc(N4CCN(CC5=C(c6ccc(C(F)(F)F)cc6C)CC(C)(C)CC5)CC4)cc3Oc3cnc4[nH]ccc4c3)cc2[N+](=O)[O-])C1 [Compound 18-1, (S)-4-(4-{[2-(2-methyl-4-trifluoromethylphenyl)-4,4-dimethylcyclohex-1-enyl]methyl}-piperazin-1-yl)-N-({3-nitro-4-[((4-acetylmorpholin-2-yl)methyl)amino]phenyl}sulfonyl)-2-(1H-pyrrolo[2,3-b]pyridin-5-yloxy)-benzamide] | 5.5 | 1.54
Cc1cc(C(F)(F)F)ccc1C1=C(CN2CCN(c3ccc(C(=O)NS(=O)(=O)c4ccc(NC[C@H]5CN(C(=O)C(C)C)CCO5)c([N+](=O)[O-])c4)c(Oc4cnc5[nH]ccc5c4)c3)CC2)CCC(C)(C)C1 [Compound 20-1, (S)-4-(4-{[2-(2-methyl-4-trifluoromethylphenyl)-4,4-dimethylcyclohex-1-enyl]methyl}-piperazin-1-yl)-N-({3-nitro-4-[((4-isobutyrylmorpholin-2-yl)methyl)amino]phenyl}sulfonyl)-2-(1H-pyrrolo[2,3-b]pyridin-5-yloxy)-benzamide] |  | 2.06

Other lines, results leading:

IC50 (RS4;11 cells) [nM] | IC50 (BCL-2/BAK) [nM] | Structure (SMILES)
5.4 | 0.7 | COCC(=O)N1CCO[C@@H](CNc2ccc(S(=O)(=O)NC(=O)c3ccc(N4CCN(CC5=C(c6ccc(C(F)(F)F)cc6C)CC(C)(C)CC5)CC4)cc3Oc3cnc4[nH]ccc4c3)cc2[N+](=O)[O-])C1 [Compound 4-1]
3.4 | 0.97 | CC(=O)N1CCO[C@H](CNc2ccc(S(=O)(=O)NC(=O)c3ccc(N4CCN(CC5=C(c6ccc(C(F)(F)F)cc6C)CC(C)(C)CC5)CC4)cc3Oc3cnc4[nH]ccc4c3)cc2[N+](=O)[O-])C1 [Compound 19-1, (R)-4-(4-{[2-(2-methyl-4-trifluoromethylphenyl)-4,4-dimethylcyclohex-1-enyl]methyl}-piperazin-1-yl)-N-({3-nitro-4-[((4-acetylmorpholin-2-yl)methyl)amino]phenyl}sulfonyl)-2-(1H-pyrrolo[2,3-b]pyridin-5-yloxy)-benzamide]
2.5 | 1.1 | Cc1cc(C(F)(F)F)ccc1C1=C(CN2CCN(c3ccc(C(=O)NS(=O)(=O)c4ccc(NC[C@@H]5CN(S(C)(=O)=O)CCO5)c([N+](=O)[O-])c4)c(Oc4cnc5[nH]ccc5c4)c3)CC2)CCC(C)(C)C1 [Compound 23-1, (R)-4-(4-{[2-(2-methyl-4-trifluoromethylphenyl)-4,4-dimethylcyclohex-1-enyl]methyl}-piperazin-1-yl)-N-({3-nitro-4-[((4-(methylsulfonyl)morpholin-2-yl)methyl)amino]phenyl}sulfonyl)-2-(1H-pyrrolo[2,3-b]pyridin-5-yloxy)-benzamide]

From patent US12319689B2, “Methyl- and trifluoromethyl-containing disubstituted sulfonamide selective BCL-2 inhibitor” (CHIA TAI TIANQING PHARMACEUTICAL GROUP CO., LTD., priority 2019, dated 2025)
